Test results published in publication PMC6161601 (Journal of Enzyme Inhibition and Medicinal Chemistry, 2018).
Values joined by “and” are separate entries in the source; they are usually repeats but may differ in a detail not shown here. Equal values may be shown once. “Also recorded” adds a separate entry of the source. Read-outs that look alike come from different tables or passages of the source.

Legend:
[1] = molecular target: T1, human plasma butyrylcholinesterase (BuChE) (Homo sapiens, UniProt P06276); assay: Kinetic parameters and type of BuChE inhibition (Hanes–Woolf); format: biochemical; details: for Vmax(i) BuChE: mean ± SD
T1 construct: Plasma for determination of BuChE activity was obtained by centrifuging the blood; from tissue; host or cells: plasma of healthy human donors
T1 sequence (P06276 29-602): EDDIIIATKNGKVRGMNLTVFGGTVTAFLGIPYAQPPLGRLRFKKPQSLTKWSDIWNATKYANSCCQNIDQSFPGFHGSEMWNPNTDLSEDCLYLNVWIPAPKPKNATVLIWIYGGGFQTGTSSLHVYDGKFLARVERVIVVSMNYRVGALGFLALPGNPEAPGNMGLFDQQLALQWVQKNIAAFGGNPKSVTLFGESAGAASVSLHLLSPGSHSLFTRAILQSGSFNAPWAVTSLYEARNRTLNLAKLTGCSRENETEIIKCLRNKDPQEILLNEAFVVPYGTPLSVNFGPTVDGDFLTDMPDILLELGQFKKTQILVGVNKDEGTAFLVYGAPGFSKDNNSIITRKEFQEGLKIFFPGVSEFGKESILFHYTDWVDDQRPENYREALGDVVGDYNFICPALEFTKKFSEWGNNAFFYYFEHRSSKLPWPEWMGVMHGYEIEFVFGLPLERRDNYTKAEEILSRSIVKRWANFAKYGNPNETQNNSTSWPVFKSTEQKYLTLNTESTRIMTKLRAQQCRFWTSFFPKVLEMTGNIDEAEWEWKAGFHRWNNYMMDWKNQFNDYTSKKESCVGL
Experimental: (§1) The absorbance was recorded at λ = 436 nm using a CECIL 2021 spectrophotometer (CECIL Instruments Limited, Cambridge, UK) with a thermostatic water flow (temperature 37° C).
(§2) AChE Selectivity Index (SI) was calculated with the aid of the following formula: SI = IC50 of BChE/IC50 of AChE. In turn BuChE SI was defined as IC50 of AChE/IC50 of BChE. Linear regression (Hanes–Woolf plots) were used to estimate the maximal velocity (Vmax) and the Michaelis constant (Km).
(§3) To establish the type of inhibition, additional experiments were conducted with various concentrations of substrates (ATC, BTC), and the kinetic parameters of the enzymatic reactions were obtained using Hanes–Woolf equation, which is a graphical representation of enzyme kinetics in which the ratio of the initial substrate concentration [S] to the reaction velocity v is plotted against [S]. […]

[2] = Intracellular uptake in in vitro cellular model (unpublished data); format: in vitro ADME; details: depending on the cell line
[3] = molecular target: T1, human plasma butyrylcholinesterase (BuChE); assay: biochemical
Experimental: (§4) Blood samples were obtained from healthy donors from the Voievodal Specialized Hospital in Łódź, Poland (Wojewódzki Specjalistyczny Szpital im. Dr W. Biegańskiego w Łodzi). The blood was collected into vacuum tubes containing sodium citrate. Erythrocytes were separated from plasma by centrifugation (3000 × g, 10 min, 20 °C) with a Micro 22 R centrifuge (Hettich ZENTRIFUGEN, Tuttlingen, Germany) and washed three times with 0.9% saline. Afterwards, red cells were haemolysed by freezing and stored at a temperature of –30 °C; before each experiment, they were restored at 37° C for 15 min and used to determine AChE activity. […] The studies on the biological material were approved by the Bioethics Committee of the Medical University of Lodz (RNN/27/18/KE).
(§5) The activity of both cholinesterases (AChE and BuChE) were conducted using a spectrophotometric method developed by Ellman with previously described modifications[25]^,[30]. […] 400-fold diluted solution of haemolysed erythrocytes or diluted plasma (200 times) was incubated for 15 min (37° C) with DTNB and tested compound at an appropriate concentration, and the reaction was started by addition of substrate (ATC or BTC). The final volume of a sample was 500 µL.
as §2

[4] = molecular target: T2, human erythrocyte acetylcholinesterase (AChE) (Homo sapiens, UniProt P22303); assay: biochemical
T2 construct: from tissue; host or cells: haemolysed erythrocytes of healthy human donors
T2 sequence (P22303 other isoform, or with tags, fused parts or gaps): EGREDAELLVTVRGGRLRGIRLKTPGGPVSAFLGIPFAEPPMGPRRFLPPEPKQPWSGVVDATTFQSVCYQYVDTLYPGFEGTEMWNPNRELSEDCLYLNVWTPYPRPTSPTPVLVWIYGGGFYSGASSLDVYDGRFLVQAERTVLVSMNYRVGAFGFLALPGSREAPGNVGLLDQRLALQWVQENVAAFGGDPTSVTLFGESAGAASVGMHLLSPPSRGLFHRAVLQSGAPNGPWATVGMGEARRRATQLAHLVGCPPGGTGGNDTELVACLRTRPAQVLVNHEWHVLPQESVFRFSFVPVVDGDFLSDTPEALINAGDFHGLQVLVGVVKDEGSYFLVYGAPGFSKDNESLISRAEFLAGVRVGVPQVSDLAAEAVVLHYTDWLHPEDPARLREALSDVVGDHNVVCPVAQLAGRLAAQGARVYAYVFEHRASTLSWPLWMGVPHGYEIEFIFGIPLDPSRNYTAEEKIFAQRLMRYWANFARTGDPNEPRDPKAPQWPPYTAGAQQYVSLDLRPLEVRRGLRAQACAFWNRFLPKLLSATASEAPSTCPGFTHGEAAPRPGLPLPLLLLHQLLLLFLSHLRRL
Experimental: as §4, §5, §2

[5] = tested on: human umbilical vein endothelial cells (HUVECs); assay: HUVEC viability and integrity, real-time electrical impedance system (unpublished data); format: cell-based
Experimental: At lower concentrations of substrate, BuChE activity is related to Michaelis–Menten kinetics and its enzymatic activity is based on the formation of an enzyme–substrate complex [ES]. At higher substrate levels (> 1 mM) BuChE presents greater activity related to the formation of a substrate-activated complex [SES][33]. […] This fact is of vital importance when studying BuChE inhibitors as in vivo the concentration of ACh in the synaptic cleft is estimated to be about 5 mM^33, which imply that substrate activated form of BuChE is present in the synaptic cleft.

BuChE = molecular target: T3, BuChE (Homo sapiens, UniProt P06276); assay: BuChE inhibition with excess of substrate (BTC); format: biochemical; details: for inhibition at 375 µM: compound at 375 µmol/L
T3 construct: Plasma for determination of BuChE activity was obtained by centrifuging the blood; from tissue; host or cells: plasma of healthy human donors
T3 sequence (P06276 29-602): as the sequence (P06276 29-602) above

AChE = molecular target: T4, AChE (Homo sapiens, UniProt P22303); format: biochemical
T4 construct: 400-fold diluted solution of haemolysed erythrocytes or diluted plasma (200 times) was incubated; from tissue; host or cells: haemolysed erythrocytes of healthy human donors
T4 sequence (P22303 other isoform, or with tags, fused parts or gaps): as the sequence (P22303 other isoform, or with tags, fused parts or gaps) above

erythrocytes = details: 6–1500 μmol/L; cited from earlier work
Aβ42 peptide = molecular target: T5, Aβ42 peptide (Homo sapiens, UniProt P05067); assay: Beta-amyloid (Aβ 1–42) aggregation, SensoLyte ThT kit; format: biochemical
T5 construct: Beta-amyloid (Aβ 1–42) aggregation studies were conducted using SensoLyte ThT Aβ42 Aggregation kit; purchased AnaSpec, Inc, Fremont, CA
T5 sequence (P05067 672-713): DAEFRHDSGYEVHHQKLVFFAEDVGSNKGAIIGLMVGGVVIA
Experimental: Beta-amyloid (Aβ 1–42) aggregation studies were conducted using SensoLyte ThT Aβ42 Aggregation kit (AnaSpec, Inc, Fremont, CA). Aβ42 peptide was dissolved in cold (4 °C) assay buffer and left to hydrate for a few minutes. The solution was spined at 10,000 rpm for 5 min at 4 °C to centrifuge out any precipitated material. […] The final volume of the test samples was 100 µL. Simultaneously, the positive control and negative control containing morin at the final concentration of 100 µmol/L were established. […] The measurements of fluorescence intensity expressed as relative fluorescence units (RFU) were taken for 90 min with 5 min intervals. The fluorescence intensity measured for positive control equals 100% of Aβ aggregation and was used for estimation of inhibition properties of tested biguanides.
Statistical analysis of data obtained in Aβ aggregation assay was conducted with a commercially available package (GraphPad Prism 5, La Jolla, CA). The results were expressed as the mean ± standard deviation (SD) of measurements conducted in triplicates or quadruplicates. One or two-way ANOVA and subsequent post hoc tests were used for intergroup comparisons. The results were considered significant at p values lower than 0.05.

[6] = molecular target: T2, human erythrocyte acetylcholinesterase (AChE); assay: Kinetic parameters and type of AChE inhibition (Hanes–Woolf); format: biochemical; details: for Vmax(i) AChE: mean ± SD
Experimental: as §1, §2, §3

[7] = molecular target: T1, human plasma butyrylcholinesterase (BuChE); details: published previously; cited from earlier work

CN(C)C(=N)N=C(N)NS(=O)(=O)c1ccc(C(F)(F)F)cc1[N+](=O)[O-] [Compound 5]
I: type of inhibition, BuChE [1]: M (M: mixed type)
type of BuChE inhibition [1]: mixed inhibition; also recorded: mixed manner; also recorded: Mixed type
vmax BuChE, mean ± SD ([1]; B: inhibitor at 1/3 of IC50): 242.44 ± 12.47 mA/min
Vmax(i) BuChE ([1]; B: inhibitor at 1/3 of IC50): 0.242 ± 0.012 A/min
vmax BuChE, mean ± SD ([1]; C: inhibitor at IC50): 202.78 ± 2.42 mA/min
Vmax(i) BuChE ([1]; C: inhibitor at IC50): 0.202 ± 0.002 A/min
vmax BuChE, individual experiments B1–B3 ([1]; inhibitor at 1/3 of IC50): 243.730 mA/min and 229.384 mA/min and 254.233 mA/min
vmax BuChE, individual experiments C1–C3 ([1]; inhibitor at IC50): 204.771 mA/min and 200.088 mA/min and 203.508 mA/min
intracellular uptake relative to metformin [2]: 70–80 fold
SI BuChE ([3]; IC50(AChE)/IC50(BChE)): 0.31
IC50 ([3]; human plasma BuChE, mean ± SD of three independent experiments): 686 ± 86.4 µM
SI AChE ([4]; IC50 BChE/IC50 AChE): 3.23
inhibition at 150 µM ([4]; compound at 150.0 µmol/L): 35 ± 7.18%
IC50 ([4]; human erythrocyte AChE, mean ± SD of three independent experiments): 212 ± 48.3 µM
decrease in HUVEC adhesion and viability ([5]; 300 μmol/L, 12–72 h of incubation): ~20%
effect on HUVEC viability ([5]; 6–100 μmol/L): did not affect cell viability
BuChE inhibition, maximal (BuChE; BTC 2.5 μmol/mL, various compound concentrations (Figure 8B)): up to 31.89 ± 6.22%
inhibition at 375 µM (BuChE; BTC 0.75 mmol/L): 27.5 ± 8.61%
inhibition at 375 µM (BuChE; BTC 2.5 mmol/L): ≤ 15.6%
type of AChE inhibition (AChE; at 1/2 IC50 for AChE): mixed-type
Vmax AChE (AChE; each at 1/2 IC50 for AChE: metformin 1175, donepezil 0.0125, compound 5 106.0 µmol/L, alone or in mixture): 0.206 ± 0.008 A/min
erythrocytes membrane disintegration (erythrocytes): does not contribute to the erythrocytes membrane disintegration
activity vs morin 100 µmol/L (Aβ42 peptide; 100 µmol/L, two-way ANOVA): significantly lower in comparison with morin
inhibitory property vs morin 100 µmol/L (Aβ42 peptide; 200 µmol/L, two-way ANOVA, p > 0.05): comparable with those of morin
inhibition at 200 µM (Aβ42 peptide; 200 µmol/L, vs control): ~20%
Aβ aggregation decreased up to (Aβ42 peptide; 100 and 200 µmol/L, after 60 min of reaction initiation): ~80%
I: type of inhibition, AChE [6]: M (M: mixed type)
type of AChE inhibition [6]: mixed-type; also recorded: mixed inhibition; also recorded: mixed way
vmax AChE, mean ± SD ([6]; B: inhibitor at 1/3 of IC50): 175.32 ± 33.25 mA/min
Vmax(i) AChE ([6]; B: inhibitor at 1/3 of IC50): 0.175 ± 0.033 A/min
vmax AChE, mean ± SD ([6]; C: inhibitor at IC50): 146.12 ± 40.50 mA/min
Vmax(i) AChE ([6]; C: inhibitor at IC50): 0.146 ± 0.040 A/min
vmax AChE, individual experiments B1–B3 ([6]; inhibitor at 1/3 of IC50): 183.000 mA/min and 204.073 mA/min and 138.914 mA/min
vmax AChE, individual experiments C1–C3 ([6]; inhibitor at IC50): 173.750 mA/min and 165.000 mA/min and 99.631 mA/min

[H]/N=C(/N)N/C(=N/[H])NCCc1ccccc1 [Phenformin, phenformin, reference compound]
inhibition at 150 µM ([3]; at 150 µmol/L): 44.7 ± 1.23%
IC50 [7]: 259 ± 31 µM
